# Data as given in US20180140545A1, “ANTIMICROBIAL PEPTIDE STIMULATING SANITIZING COMPOSITION” (GOJO Industries, Inc., priority 2016, published 2018).
# How the values were obtained:
# Format in all cases: cell-based
# HBD-3 = HBD-3 ELISA, dose response in Neonatal Human Epidermal Keratinocytes; settings: for HBD-3: NHEK, overnight (16 hours); for increase in HBD-3 production and/or activity: vs control culture medium
# Procedure: (§1) To determine the optimal dose of active ingredient, test dose response studies were run using both Decorinyl® and Pamitoyl Pentapeptided-3. These test dose response studies were commissioned to determine the concentration of HBD-3 at various levels of the active ingredients. Neonatal Human Epidermal Keratinocytes (NHEK; Life Technology, Grand Island, N.Y., USA) were cultured with keratinocyte growth medium (KGM, Medium 154: M-154-500 Life Technology with supplements S-001, Life Technologies). NHEK were seeded into 96-well plates at a density of 10000 cells in 200 μl medium per well. After 48 hours, the cells were incubated with varying concentrations of each ingredient solution in a culture medium (KGM) overnight (16 hours) at 37° C., 5% CO2 and 95% humidity at four replicates for each concentration. Each of these active ingredients was tested at the following weight percents based on the weight of the total culture: 0.02 wt. %, 0.05 wt. %, 0.1 wt. %, 0.2 wt. %, 0.5 wt. %, 1.0 wt. %, 2.0 wt. %. Each of these compositions was compared to a control culture medium.
# (§2) HBD-3 was detected using HBD-3 ELISA developing kits (commercially available from Peprotech). ELISA were performed according to the manufactory instructions of each kit by adding 100 μl/well of culture medium after overnight treatment. The substrate of ELISA reaction was using the substrate reagent from R&D Systems (DY999), and the reactions were stopped by adding 50 μl of 1N H2SO4 in each well. The results were measured using a colorimeter, absorbance was measured at 450 nanometers (nm) within 30 minutes. Wavelength correction was set to 570 nm. The concentration of each sample was calculated using ELISA standard curve.
# HBD-2 = HBD-2 ELISA, dose response in Neonatal Human Epidermal Keratinocytes; settings: for HBD-2: NHEK, overnight (16 hours)
# Procedure: as §1, with “of HBD-2” for “of HBD-3”, “ingredients were” for “ingredients was”
# as §2, with “HBD-2” for “HBD-3”
# HBD-1 = HBD-1 ELISA, dose response in Neonatal Human Epidermal Keratinocytes; settings: for HBD-1: NHEK, overnight (16 hours); for increase in HBD-1 production and/or activity: vs control culture medium
# Procedure: as §1, with “HBD-1” for “HBD-3”
# as §2, with “HBD-1 was detected” for “HBD-3 was detected”, “detected using HBD-1 ELISA (enzyme-linked” for “detected using HBD-3 ELISA developing”, “HBD-1 ELISA (enzyme-linked immunosorbent assay) developing kits” for “HBD-3 ELISA developing kits”
substance,measurement,setting,value
palmitoyl pentapeptide-3 [Pamitoyl Pentapeptided-3],HBD-3,HBD-3; 0.02% active ingredient,288 pg/mL
same,HBD-3,HBD-3; 0.05% active ingredient,242 pg/mL
same,HBD-3,HBD-3; 0.1% active ingredient,387 pg/mL
same,HBD-3,HBD-3; 0.2% active ingredient,775 pg/mL
same,HBD-3,HBD-3; 0.5% active ingredient,2278 pg/mL
same,HBD-3,HBD-3; 1% active ingredient,4783 pg/mL
same,increase in HBD-3 production and/or activity,HBD-3; 1.0 wt. %,1005%
same,HBD-3,HBD-3; 2% active ingredient,8617 pg/mL
same,increase in HBD-3 production and/or activity,HBD-3; 2.0 wt. %,1890%
same,HBD-2,HBD-2; 0.02% active ingredient,9 pg/mL
same,HBD-2,HBD-2; 0.05% active ingredient,8 pg/mL
same,HBD-2,HBD-2; 0.1% active ingredient,9 pg/mL
same,HBD-2,HBD-2; 0.2% active ingredient,14 pg/mL
same,HBD-2,HBD-2; 0.5% active ingredient,21 pg/mL
same,HBD-2,HBD-2; 1% active ingredient,72 pg/mL
same,HBD-2,HBD-2; 2% active ingredient,203 pg/mL
same,increase in HBD-2 production and/or activity,"HBD-2; 2.0 wt. %, vs control culture medium",2800%
same,HBD-1,HBD-1; 0.02% active ingredient,59 pg/mL
same,HBD-1,HBD-1; 0.05% active ingredient,57 pg/mL
same,HBD-1,HBD-1; 0.1% active ingredient,64 pg/mL
same,HBD-1,HBD-1; 0.2% active ingredient,85 pg/mL
same,HBD-1,HBD-1; 0.5% active ingredient,162 pg/mL
same,HBD-1,HBD-1; 1% active ingredient,259 pg/mL
same,increase in HBD-1 production and/or activity,HBD-1; 1.0 wt. %,311%
same,HBD-1,HBD-1; 2% active ingredient,1047 pg/mL
same,increase in HBD-1 production and/or activity,HBD-1; 2.0 wt. %,1561%
